Patent publication US8871756B2 (Hoffmann-La Roche Inc., priority 2011, dated 2014)
Counter-ions that a name gives are not always drawn.

Test system: RSV Long strain
Assay: Viral cytopathic effect (CPE) assay, anti-RSV activity
Assay type: cell-based, Respiratory Syncytial Virus
Details: human respiratory syncytial virus, 144 h, RSV Long strain (ATCC); cell viability after 6 days, Cell Counting kit-8
Outline: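 Cells (6×10^3/well, DMEM with 10% FBS) were infected next day with RSV Long strain, at a dose giving approximately 80–90% CPE, alongside serial half-log compound dilutions. Viability was read after 6 days by CCK-8 absorbance at 450 nm (reference 630 nm), and EC50 was derived from it.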

| EC50 [µM] | SMILES |
| --- | --- |
| 0.021 | Cc1ccc2nc(N3CCS(=O)(=O)c4ccccc4C3)cc(NCCCNC3COC3)c2c1 [Example 45-1, N-[2-(1,1-Dioxido-2,3-dihydro-1,4-benzothiazepin-4(5H)-yl)-6-methylquinolin-4-yl]-N′-(oxetan-3-yl)propane-1,3-diamine] |
| 0.253 | Cc1ccc2nc(N3CCS(=O)(=O)c4ccccc4C3)cc(N3CCC(NC4COC4)C3)c2c1 (stereo not shown) [Example 45-2, 1-[2-(1,1-Dioxido-2,3-dihydro-1,4-benzothiazepin-4(5H)-yl)-6-methylquinolin-4-yl]-N-(oxetan-3-yl)pyrrolidin-3-amine] |
| 0.031 | Cc1ccc2nc(N3CCS(=O)(=O)c4ccccc4C3)cc(NCCNC3COC3)c2c1 [Example 45-3, N-[2-(1,1-Dioxido-2,3-dihydro-1,4-benzothiazepin-4(5H)-yl)-6-methylquinolin-4-yl]-N′-(oxetan-3-yl)ethane-1,2-diamine] |
| 0.682 | Cc1ccc2nc(N3CCS(=O)(=O)c4ccccc4C3)cc(NCCNc3ccccn3)c2c1 [Example 46, N-[2-(1,1-Dioxido-2,3-dihydro-1,4-benzothiazepin-4(5H)-yl)-6-methylquinolin-4-yl]-N′-(pyridin-2-yl)ethane-1,2-diamine] |
| 7.88 | Cc1ccc2nc(N3CCS(=O)(=O)c4ccccc4C3)cc(N3C[C@H](O)CC3=O)c2c1 [Example 47-1, (4R)-1-[2-(1,1-Dioxido-2,3-dihydro-1,4-benzothiazepin-4(5H)-yl)-6-methylquinolin-4-yl]-4-hydroxypyrrolidin-2-one] |
| 5.82 | Cc1ccc2nc(N3CCS(=O)(=O)c4ccccc4C3)cc(NC(=O)C3CNC(=O)C3)c2c1 (stereo not shown) [Example 47-2, N-[2-(1,1-Dioxido-2,3-dihydro-1,4-benzothiazepin-4(5H)-yl)-6-methylquinolin-4-yl]-5-oxopyrrolidine-3-carboxamide] |
| 5.69 | Cc1ccc2nc(N3CCS(=O)(=O)c4ccccc4C3)cc(Nc3cc[nH]n3)c2c1 [Example 47-3, 2-(1,1-Dioxido-2,3-dihydro-1,4-benzothiazepin-4(5H)-yl)-6-methyl-N-(1H-pyrazol-3-yl)quinolin-4-amine] |
| 0.993 | Cc1ccc2nc(N3CCS(=O)(=O)c4ccccc4C3)cc(NC(=O)c3cccnc3)c2c1 [Example 47-4, N-[2-(1,1-Dioxido-2,3-dihydro-1,4-benzothiazepin-4(5H)-yl)-6-methylquinolin-4-yl]pyridine-3-carboxamide] |
| 0.835 | Cc1ccc2nc(N3CCS(=O)(=O)c4ccccc4C3)cc(NC(=O)C3CCCCN3)c2c1 (stereo not shown) [Example 47-5, N-[2-(1,1-Dioxido-2,3-dihydro-1,4-benzothiazepin-4(5H)-yl)-6-methylquinolin-4-yl]piperidine-2-carboxamide] |
| 2.31 | Cc1ccc2nc(N3CCS(=O)(=O)c4ccccc4C3)cc(NC(=O)Cc3ccccn3)c2c1 [Example 47-6, N-[2-(1,1-Dioxido-2,3-dihydro-1,4-benzothiazepin-4(5H)-yl)-6-methylquinolin-4-yl]-2-(pyridin-2-yl)acetamide] |
| 3.41 | Cc1ccc2nc(N3CCS(=O)(=O)c4ccccc4C3)cc(NS(C)(=O)=O)c2c1 [Example 47-7, N-[2-(1,1-Dioxido-2,3-dihydro-1,4-benzothiazepin-4(5H)-yl)-6-methylquinolin-4-yl]methanesulfonamide trifluoroacetate] |
| 0.432 | Cc1ccc2nc(N3CCS(=O)(=O)c4ccccc4C3)cc(NC(=O)c3cnccn3)c2c1 [Example 47-8, N-[2-(1,1-Dioxido-2,3-dihydro-1,4-benzothiazepin-4(5H)-yl)-6-methylquinolin-4-yl]pyrazine-2-carboxamide] |
| 0.192 | Cc1ccc2nc(N3CCS(=O)(=O)c4ccccc4C3)cc(NC(=O)CO)c2c1 [Example 47-9, N-[2-(1,1-Dioxido-2,3-dihydro-1,4-benzothiazepin-4(5H)-yl)-6-methylquinolin-4-yl]-2-hydroxyacetamide] |
| 0.009 | Cc1ccc2nc(N3CCS(=O)(=O)c4ccccc4C3)cc(NC(=O)c3ccccn3)c2c1 [Example 48, N-[2-(1,1-Dioxido-2,3-dihydro-1,4-benzothiazepin-4(5H)-yl)-6-methylquinolin-4-yl]pyridine-2-carboxamide] |
| 0.721 | Cc1ccc2nc(N3CCS(=O)(=O)c4ccccc4C3)cc(NC(=O)C3CCN3)c2c1 (stereo not shown) [Example 49, N-[2-(1,1-Dioxido-2,3-dihydro-1,4-benzothiazepin-4(5H)-yl)-6-methylquinolin-4-yl]azetidine-2-carboxamide] |
| 0.931 | Cc1ccc2nc(N3CCS(=O)(=O)c4ccccc4C3)cc(NC(=O)Nc3ccccc3)c2c1 [Example 50-1, 1-[2-(1,1-Dioxido-2,3-dihydro-1,4-benzothiazepin-4(5H)-yl)-6-methylquinolin-4-yl]-3-phenylurea] |
| 2.42 | CCNC(=O)Nc1cc(N2CCS(=O)(=O)c3ccccc3C2)nc2ccc(C)cc12 [Example 50-2, 1-[2-(1,1-Dioxido-2,3-dihydro-1,4-benzothiazepin-4(5H)-yl)-6-methylquinolin-4-yl]-3-ethylurea] |

| EC50 [µM] | SMILES |
| --- | --- |
| 0.056 | NCCCNc1cc(N2CCS(=O)(=O)c3ccccc3C2)nc2ccc(C3CC3)cc12 [Example 51, N-[6-Cyclopropyl-2-(1,1-dioxido-2,3-dihydro-1,4-benzothiazepin-4(5H)-yl)quinolin-4-yl]propane-1,3-diamine] |
| 0.419 | N#Cc1ccc2nc(N3CCS(=O)(=O)c4ccccc4C3)cc(NCCCN)c2c1 [Example 52, 4-[(3-Aminopropyl)amino]-2-(1,1-dioxido-2,3-dihydro-1,4-benzothiazepin-4(5H)-yl)quinoline-6-carbonitrile] |
| 0.094 | C=Cc1ccc2nc(N3CCS(=O)(=O)c4ccccc4C3)cc(NCCCN)c2c1 [Example 53, N-[2-(1,1-Dioxido-2,3-dihydro-1,4-benzothiazepin-4(5 H)-yl)-6-ethenylquinolin-4-yl]propane-1,3-diamine] |
| 4.8 | C#Cc1ccc2nc(N3CCS(=O)(=O)c4ccccc4C3)cc(NCCCN)c2c1 [Example 54, N-[2-(1,1-Dioxido-2,3-dihydro-1,4-benzothiazepin-4(5H)-yl)-6-ethynylquinolin-4-yl]propane-1,3-diamine] |
| 0.007 | Cc1ccc2nc(N3CC[S+]([O-])c4ccccc4C3)nc(NCC3(N)COC3)c2c1 (stereo not shown) [Example 55-1, N-[(3-Aminooxetan-3-yl)methyl]-6-methyl-2-(1-oxido-2,3-dihydro-1,4-benzothiazepin-4(5H)-yl)quinazolin-4-amine] |
| 0.202 | Cc1ccc2nc(N3CC[S+]([O-])c4ccccc4C3)nc(NCC3(NCc4ccccc4)COC3)c2c1 (stereo not shown) [Example 55-2, N-{[3-(Benzylamino)oxetan-3-yl]methyl}-6-methyl-2-(1-oxido-2,3-dihydro-1,4-benzothiazepin-4(5H)-yl)quinazolin-4-amine] |
| 0.006 | Cc1ccc2nc(N3CC[S+]([O-])c4ccccc4C3)nc(NCC(F)CN)c2c1 (stereo not shown) [Example 55-3, 2-Fluoro-N-[6-methyl-2-(1-oxido-2,3-dihydro-1,4-benzothiazepin-4(5H)-yl)quinazolin-4-yl]propane-1,3-diamine] |
| 0.002 | Cc1ccc2nc(N3CCS(=O)(=O)c4ccccc4C3)nc(NCC3(CN)COC3)c2c1 [Example 56-1, N-{[3-(Aminomethyl)oxetan-3-yl]methyl}-2-(1,1-dioxido-2,3-dihydro-1,4-benzothiazepin-4(5H)-yl)-6-methylquinazolin-4-amine] |
| 0.023 | Cc1ccc2nc(N3CC[S+]([O-])c4ccccc4C3)nc(NCC(F)(F)CN)c2c1 (stereo not shown) [Example 56-2, 2,2-Difluoro-N-[6-methyl-2-(1-oxido-2,3-dihydro-1,4-benzothiazepin-4(5H)-yl)quinazolin-4-yl]propane-1,3-diamine] |
| 0.004 | NCC1(CNc2nc(N3CCS(=O)(=O)c4ccccc4C3)nc3ccc(Cl)cc23)COC1 [Example 56-3, N-{[3-(aminomethyl)oxetan-3-yl]methyl}-6-chloro-2-(1,1-dioxido-2,3-dihydro-1,4-benzothiazepin-4(5H)-yl)quinazolin-4-amine] |
| 0.027 | Cc1ccc2nc(N3CCS(=O)(=O)c4ccccc4C3)nc(NCC(F)(F)CN)c2c1 [Example 56-4, N-[2-(1,1-Dioxido-2,3-dihydro-1,4-benzothiazepin-4(5H)-yl)-6-methylquinazolin-4-yl]-2,2-difluoropropane-1,3-diamine] |
| 0.022 | Cc1ccc2nc(N3CCS(=O)(=O)c4ccccc4C3)nc(NCC(F)CN)c2c1 (stereo not shown) [Example 56-5, N-[2-(1,1-Dioxido-2,3-dihydro-1,4-benzothiazepin-4(5H)-yl)-6-methylquinazolin-4-yl]-2-fluoropropane-1,3-diamine] |
| 0.002 | Cc1ccc2nc(N3CC[S+]([O-])c4ccccc4C3)nc(NCCCN)c2c1 (stereo not shown) [Example 56-6, N-[6-Methyl-2-(1-oxido-2,3-dihydro-1,4-benzothiazepin-4(5H)-yl)quinazolin-4-yl]propane-1,3-diamine] |
| 0.067 | NC1(CNc2nc(N3CCSc4ccccc4C3)nc3ccccc23)COC1 [Example 57-1, N-[(3-Aminooxetan-3-yl)methyl]-2-(2,3-dihydro-1,4-benzothiazepin-4(5H)-yl)quinazolin-4-amine] |
| 0.018 | NC1(CNc2nc(N3CC[S+]([O-])c4ccccc4C3)nc3ccccc23)COC1 (stereo not shown) [Example 57-2, N-[(3-Aminooxetan-3-yl)methyl]-2-(1-oxido-2,3-dihydro-1,4-benzothiazepin-4(5H)-yl)quinazolin-4-amine] |
| 0.023 | NC1(CNc2nc(N3CCS(=O)(=O)c4ccccc4C3)nc3ccccc23)COC1 [Example 57-3, N-[(3-Aminooxetan-3-yl)methyl]-2-(1,1-dioxido-2,3-dihydro-1,4-benzothiazepin-4(5H)-yl)quinazolin-4-amine] |
| 0.239 | NC1(CNc2nc(N3CCSc4ccccc4C3)nc3ccc(Cl)cc23)COC1 [Example 57-4, N-[(3-Aminooxetan-3-yl)methyl]-6-chloro-2-(2,3-dihydro-1,4-benzothiazepin-4(5H)-yl)quinazolin-4-amine] |
